Assay results reported in the supplement of paper PMC4858399.
Structures can show the parent of a compound that is named as a salt.

Columns and labels:
[1] = system: Caenorhabditis elegans N2; test: mean nematode size ln(EXT) after 48 h, plate-adjusted (DMSO control set to 6) (ln(EXT), control-adjusted); higher = larger nematodes / less growth inhibition; conditions: exposure time 48 h
Summary of the method: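 C. elegans N2 larvae, synchronised at L1, grew for 48 h at 20°C in K-medium with killed OP50, 1% DMSO and 0.5–200 µM chemical. Mean size per well was derived from natural-logged Biosort extinction after a growth model removed debris. Adjustment across plates involved subtracting the vehicle control mean and adding 6.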

[2] = system: Caenorhabditis elegans N2; test: lowest effective concentration for larval growth inhibition (size below effect threshold); higher = less potent; conditions: exposure time 48 h
Summary of the method: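 Log-transformed well means of per-worm extinction, read as size on a Biosort, came from 50 C. elegans N2 L1 larvae per 96-well grown 48 h at 20°C in K-medium with killed bacteria, 1% DMSO and 0.5 to 200 µM chemical. The lowest effective concentration is the first dose at which the plate-adjusted mean size is below the threshold and stays below it at every higher dose. The threshold is 5.665.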

**Q.** For `N#C[C@@H]1CC(F)(F)CN1C(=O)CNC1CC2CCC(C1)N2c1ncccn1` (some centres undefined), which “mean nematode size ln(EXT) (ln)” value ([1]; 0.5 µM) is on record?
**A.** 5.82

**Q.** What about the “mean nematode size ln(EXT) (ln)” value ([1]; 1 µM) of the same molecule?
**A.** 5.89

**Q.** And the “mean nematode size ln(EXT) (ln)” value ([1]; 5 µM)?
**A.** 5.85

**Q.** And the “mean nematode size ln(EXT) (ln)” value ([1]; 10 µM)?
**A.** 6

**Q.** And the “mean nematode size ln(EXT) (ln)” value ([1]; 50 µM)?
**A.** 5.95

**Q.** What about the “mean nematode size ln(EXT) (ln)” value ([1]; 100 µM) of the same molecule?
**A.** 5.78

**Q.** What about the “mean nematode size ln(EXT) (ln)” value ([1]; 200 µM) of the same molecule?
**A.** 5.85

**Q.** And the lowest effective concentration [2]?
**A.** > 200 µM

**Q.** Which results are given for `COCC(C)N(C(=O)CCl)c1c(C)csc1C` (centres undefined) [Dimethenamid]?
**A.** mean nematode size ln(EXT) (ln) ([1]; 0.5 µM): 6.08; mean nematode size ln(EXT) (ln) ([1]; 1 µM): 5.91; mean nematode size ln(EXT) (ln) ([1]; 5 µM): 6.17; mean nematode size ln(EXT) (ln) ([1]; 10 µM): 6.03; mean nematode size ln(EXT) (ln) ([1]; 50 µM): 5.87; mean nematode size ln(EXT) (ln) ([1]; 100 µM): 6.56; mean nematode size ln(EXT) (ln) ([1]; 200 µM): 5.99; lowest effective concentration [2]: > 200 µM

**Q.** `C#C[C@]1(O)CC[C@H]2[C@@H]3CCc4cc(O)ccc4[C@H]3CC[C@@]21C` [17alpha-Ethynylestradiol] was tested. Which “mean nematode size ln(EXT) (ln)” value ([1]; 0.5 µM) did it give?
**A.** 6

**Q.** And the “mean nematode size ln(EXT) (ln)” value ([1]; 1 µM)?
**A.** 5.96

**Q.** What about the “mean nematode size ln(EXT) (ln)” value ([1]; 5 µM) of the same molecule?
**A.** 5.9

**Q.** What about the “mean nematode size ln(EXT) (ln)” value ([1]; 10 µM) of the same molecule?
**A.** 5.91

**Q.** What about the “mean nematode size ln(EXT) (ln)” value ([1]; 50 µM) of the same molecule?
**A.** 6

**Q.** What about the “mean nematode size ln(EXT) (ln)” value ([1]; 100 µM) of the same molecule?
**A.** 5.86

**Q.** What about the “mean nematode size ln(EXT) (ln)” value ([1]; 200 µM) of the same molecule?
**A.** 5.92

**Q.** What about the lowest effective concentration [2] of the same molecule?
**A.** > 200 µM

**Q.** With `Nc1c(Cl)c(Cl)nc(C(=O)O)c1Cl` [Picloram] as the molecule, how does the “mean nematode size ln(EXT) (ln)” value ([1]; 0.5 µM) read?
**A.** 6.16

**Q.** And the “mean nematode size ln(EXT) (ln)” value ([1]; 1 µM)?
**A.** 6.06

**Q.** What about the “mean nematode size ln(EXT) (ln)” value ([1]; 5 µM) of the same molecule?
**A.** 6.09

**Q.** And the “mean nematode size ln(EXT) (ln)” value ([1]; 10 µM)?
**A.** 6.14

**Q.** What about the “mean nematode size ln(EXT) (ln)” value ([1]; 50 µM) of the same molecule?
**A.** 6.12

**Q.** What about the “mean nematode size ln(EXT) (ln)” value ([1]; 100 µM) of the same molecule?
**A.** 6.14

**Q.** And the “mean nematode size ln(EXT) (ln)” value ([1]; 200 µM)?
**A.** 5.97

**Q.** And the lowest effective concentration [2]?
**A.** > 200 µM

**Q.** What does the source list for `CCCCCCCC=O` [Octanal]?
**A.** mean nematode size ln(EXT) (ln) ([1]; 0.5 µM): 6; mean nematode size ln(EXT) (ln) ([1]; 1 µM): 5.82; mean nematode size ln(EXT) (ln) ([1]; 5 µM): 5.94; mean nematode size ln(EXT) (ln) ([1]; 10 µM): 5.77; mean nematode size ln(EXT) (ln) ([1]; 50 µM): 5.88; mean nematode size ln(EXT) (ln) ([1]; 100 µM): 5.84; mean nematode size ln(EXT) (ln) ([1]; 200 µM): 5.77; lowest effective concentration [2]: > 200 µM

**Q.** Which “mean nematode size ln(EXT) (ln)” value ([1]; 0.5 µM) does the source give for `CC(C)(O)c1ccc(CNC(=O)c2cccnc2Oc2ccc(F)cc2)cc1` here?
**A.** 5.74

**Q.** And the “mean nematode size ln(EXT) (ln)” value ([1]; 1 µM)?
**A.** 6.01

**Q.** And the “mean nematode size ln(EXT) (ln)” value ([1]; 5 µM)?
**A.** 5.84

**Q.** What about the “mean nematode size ln(EXT) (ln)” value ([1]; 10 µM) of the same molecule?
**A.** 5.9

**Q.** What about the “mean nematode size ln(EXT) (ln)” value ([1]; 50 µM) of the same molecule?
**A.** 5.91

**Q.** What about the “mean nematode size ln(EXT) (ln)” value ([1]; 100 µM) of the same molecule?
**A.** 5.9

**Q.** And the “mean nematode size ln(EXT) (ln)” value ([1]; 200 µM)?
**A.** 5.72

**Q.** And the lowest effective concentration [2]?
**A.** > 200 µM

**Q.** What does the source list for `CC1=NNC(=O)N(/N=C/c2cccnc2)C1` [Pymetrozine]?
**A.** mean nematode size ln(EXT) (ln) ([1]; 0.5 µM): 5.74; mean nematode size ln(EXT) (ln) ([1]; 1 µM): 5.77; mean nematode size ln(EXT) (ln) ([1]; 5 µM): 5.8; mean nematode size ln(EXT) (ln) ([1]; 10 µM): 5.78; mean nematode size ln(EXT) (ln) ([1]; 50 µM): 5.77; mean nematode size ln(EXT) (ln) ([1]; 100 µM): 5.89; mean nematode size ln(EXT) (ln) ([1]; 200 µM): 5.76; lowest effective concentration [2]: > 200 µM

**Q.** How did the “mean nematode size ln(EXT) (ln)” value ([1]; 0.5 µM) turn out when `NCC1(Cc2noc(=O)[nH]2)CCCCC1` was run?
**A.** 5.77

**Q.** What about the “mean nematode size ln(EXT) (ln)” value ([1]; 1 µM) of the same molecule?
**A.** 5.69

**Q.** And the “mean nematode size ln(EXT) (ln)” value ([1]; 5 µM)?
**A.** 5.76

**Q.** What about the “mean nematode size ln(EXT) (ln)” value ([1]; 10 µM) of the same molecule?
**A.** 5.73

**Q.** And the “mean nematode size ln(EXT) (ln)” value ([1]; 50 µM)?
**A.** 5.69

**Q.** And the “mean nematode size ln(EXT) (ln)” value ([1]; 100 µM)?
**A.** 5.72

**Q.** And the “mean nematode size ln(EXT) (ln)” value ([1]; 200 µM)?
**A.** 5.7

**Q.** What about the lowest effective concentration [2] of the same molecule?
**A.** > 200 µM

**Q.** With `O=C([O-])c1ccccc1.[Na+]` [Sodium benzoate] as the molecule, how does the “mean nematode size ln(EXT) (ln)” value ([1]; 0.5 µM) read?
**A.** 5.83

**Q.** And the “mean nematode size ln(EXT) (ln)” value ([1]; 1 µM)?
**A.** 5.83

**Q.** What about the “mean nematode size ln(EXT) (ln)” value ([1]; 5 µM) of the same molecule?
**A.** 5.95

**Q.** And the “mean nematode size ln(EXT) (ln)” value ([1]; 10 µM)?
**A.** 5.83

**Q.** And the “mean nematode size ln(EXT) (ln)” value ([1]; 50 µM)?
**A.** 5.86

**Q.** And the “mean nematode size ln(EXT) (ln)” value ([1]; 100 µM)?
**A.** 5.76

**Q.** And the “mean nematode size ln(EXT) (ln)” value ([1]; 200 µM)?
**A.** 5.68

**Q.** And the lowest effective concentration [2]?
**A.** > 200 µM

**Q.** Which “mean nematode size ln(EXT) (ln)” value ([1]; 0.5 µM) does the source give for `OCCNCCO` [Diethanolamine] here?
**A.** 6.04

**Q.** What about the “mean nematode size ln(EXT) (ln)” value ([1]; 1 µM) of the same molecule?
**A.** 6.05

**Q.** And the “mean nematode size ln(EXT) (ln)” value ([1]; 5 µM)?
**A.** 6.04

**Q.** And the “mean nematode size ln(EXT) (ln)” value ([1]; 10 µM)?
**A.** 6.02

**Q.** And the “mean nematode size ln(EXT) (ln)” value ([1]; 50 µM)?
**A.** 6.1

**Q.** And the “mean nematode size ln(EXT) (ln)” value ([1]; 100 µM)?
**A.** 6.07

**Q.** And the “mean nematode size ln(EXT) (ln)” value ([1]; 200 µM)?
**A.** 5.79

**Q.** What about the lowest effective concentration [2] of the same molecule?
**A.** > 200 µM

**Q.** What does the source list for `CCCCOC(=O)c1ccccc1C(=O)O` [Monobutyl phthalate]?
**A.** mean nematode size ln(EXT) (ln) ([1]; 0.5 µM): 6.02; mean nematode size ln(EXT) (ln) ([1]; 1 µM): 5.99; mean nematode size ln(EXT) (ln) ([1]; 5 µM): 6.01; mean nematode size ln(EXT) (ln) ([1]; 10 µM): 5.99; mean nematode size ln(EXT) (ln) ([1]; 50 µM): 5.97; mean nematode size ln(EXT) (ln) ([1]; 100 µM): 5.95; mean nematode size ln(EXT) (ln) ([1]; 200 µM): 5.97; lowest effective concentration [2]: > 200 µM

**Q.** What does the source list for `CCCCC(CC)COC(=O)c1ccccc1C(=O)OCC(CC)CCCC` (centres undefined) [Diethylhexyl phthalate]?
**A.** mean nematode size ln(EXT) (ln) ([1]; 0.5 µM): 5.9; mean nematode size ln(EXT) (ln) ([1]; 1 µM): 5.91; mean nematode size ln(EXT) (ln) ([1]; 5 µM): 5.76; mean nematode size ln(EXT) (ln) ([1]; 10 µM): 5.85; mean nematode size ln(EXT) (ln) ([1]; 50 µM): 5.67; mean nematode size ln(EXT) (ln) ([1]; 100 µM): 6.02; mean nematode size ln(EXT) (ln) ([1]; 200 µM): 5.76; lowest effective concentration [2]: > 200 µM

**Q.** What does the source list for `CC(C)NCC(O)c1ccc(O)c(O)c1` (centres undefined) [Isoprenaline hydrochloride]?
**A.** mean nematode size ln(EXT) (ln) ([1]; 0.5 µM): 5.94; mean nematode size ln(EXT) (ln) ([1]; 1 µM): 5.97; mean nematode size ln(EXT) (ln) ([1]; 5 µM): 5.91; mean nematode size ln(EXT) (ln) ([1]; 10 µM): 5.94; mean nematode size ln(EXT) (ln) ([1]; 50 µM): 5.95; mean nematode size ln(EXT) (ln) ([1]; 100 µM): 5.54; mean nematode size ln(EXT) (ln) ([1]; 200 µM): 5.84; lowest effective concentration [2]: > 200 µM
